Measured values as given in patent publication US7626042B2, “O-substituted hydroxyaryl derivatives” (Institute of Medicinal Molecular Design, Inc., priority 2002, dated 2009).

System: NF-κB activation
Test: Inhibitory activity against NF-κB activation, luciferase reporter assay under TNF-α stimulation
Type: cell-based, human
Settings: HepG2 cells, TNF-α 40 ng/ml, 4 hours; for inhibition at 1 µg/mL / inhibition at 10 µg/mL: Homo sapiens, read-out: Inhibitory Ratio of NF-κ B Activation(%)
Protocol: Inhibitory activity against NF-κB activation was measured by referring to the method of Hill et al. (Cell, (USA), in 1993, Vol. 73, No. 2, p. 395-406). Using a transfection reagent(Effectene; QIAGEN), the human hepatoma cell strain HepG2 was transfected with a plasmid (pNFκ Luc Reporter Plasmid; STRATAGENE) integrated with an oligonucleotide having five tandem copies of NF-κB binding sequences(TGGGGACTTTCCGC) on a upstream region of firefly luciferase gene (Luc) according to the QIAGEN's protocol, and the cells were incubated for 6 to 24 hours. Then the cells were cultured for 4 hours after the addition of TNF-α (40 ng/ml) in the presence of a test compound, and intracellular luciferase activity was measured by using PicaGene LT (TOYO INK MFG Co., Ltd.) and a chemical luminescence measurement apparatus(SPECTRAFluor Plus; TECAN). The inhibitory ratio was measured as a ratio relative to a value of the luciferase activity in the absence of the test compound.

Structure (SMILES) | Inhibitory Ratio of NF-κ B Activation(%) (Drug Concentration 1 μg/mL) | Inhibitory Ratio of NF-κ B Activation(%) (Drug Concentration 10 μg/mL) | inhibition at 1 µg/mL (Drug Concentration 1 μg/mL) [%] | inhibition at 10 µg/mL (Drug Concentration 10 μg/mL) [%]
CC(C)(C)OC(=O)NCCCC[C@H](NC(=O)CNC(=O)Oc1ccc(Cl)cc1C(=O)Nc1cc(C(F)(F)F)cc(C(F)(F)F)c1)C(=O)OC(C)(C)C [Compound 65] | 95.8 | 97.3 | – | –
CSc1ccc(NC(=O)Oc2cc3ccccc3cc2C(=O)Nc2ccccc2)cc1 [Compound 66] | 12.2 | 41.4 | – | –
CCN(CC)C(=O)Oc1ccc(Cl)cc1C(=O)Nc1cc(C(F)(F)F)cc(C(F)(F)F)c1 [Compound 68] | 53.0 | 47.4 | – | –
CN(C(=O)Oc1ccc(Cl)cc1C(=O)Nc1cc(C(F)(F)F)cc(C(F)(F)F)c1)c1ccccc1 [Compound 69] | 29.7 | 18.7 | – | –
O=C(Nc1cc(C(F)(F)F)cc(C(F)(F)F)c1)c1cc(Cl)ccc1OC(=O)N1CCCC1 [Compound 70] | 48.1 | 89.6 | – | –
O=C(Nc1cc(C(F)(F)F)cc(C(F)(F)F)c1)c1cc(Cl)ccc1OC(=O)N1CCOCC1 [Compound 71] | 70.6 | 78.0 | – | –
CN1CCN(C(=O)Oc2ccc(Cl)cc2C(=O)Nc2cc(C(F)(F)F)cc(C(F)(F)F)c2)CC1 [Compound 72] | 39.4 | 35.2 | – | –
O=C(Nc1cc(C(F)(F)F)cc(C(F)(F)F)c1)c1cc(Cl)ccc1OC(=O)N1CCC(C(=O)O)CC1 [Compound 74] | 56.2 | 58.1 | – | –
CCOC(=O)CN(CC(=O)OCC)C(=O)Oc1ccc(Cl)cc1C(=O)Nc1cc(C(F)(F)F)cc(C(F)(F)F)c1 [Compound 75, 2-{N,N-bis[(ethoxycarbonyl)methyl]carbamoyl}oxy-5-chloro-N-[3,5-bis(trifluoromethyl)phenyl]benzamide] | – | – | 94.3 | 94.9
O=C(O)CN(CC(=O)O)C(=O)Oc1ccc(Cl)cc1C(=O)Nc1cc(C(F)(F)F)cc(C(F)(F)F)c1 [Compound 76] | 98.9 | 98.2 | – | –
O=C(Nc1cc(C(F)(F)F)cc(C(F)(F)F)c1)c1cc(Br)ccc1OC(=O)N1CCOCC1 [Compound 77, 5-Bromo-2-(morpholinocarbonyl)oxy-N-[3,5-bis(trifluoromethyl)phenyl]benzamide] | – | – | 69.7 | 31
O=C(Nc1cc(C(F)(F)F)cc(C(F)(F)F)c1)c1cc(C(F)(F)F)ccc1OC(=O)N1CCOCC1 [Compound 79, 2-(Morpholinocarbonyl)oxy-5-trifluoromethyl-N-[3,5-bis(trifluoromethyl)phenyl]-benzamide] | – | – | 88.1 | 70.2
O=C(Nc1cc(C(F)(F)F)cc(C(F)(F)F)c1)c1ccc(Cl)cc1OC(=O)N1CCOCC1 [Compound 80, 4-Chloro-2-(morpholinocarbonyl)oxy-N-[3,5-bis(trifluoromethyl)phenyl]benzamide] | – | – | 91.4 | 68.4
O=C(Nc1cc(C(F)(F)F)cc(C(F)(F)F)c1)c1cc(-c2ccccc2)ccc1OC(=O)N1CCOCC1 [Compound 81, 2-(Morpholinocarbonyl)oxy-5-phenyl-N-[3,5-bis(trifluoromethyl)phenyl]benzamide] | – | – | 26.4 | 29.2
O=C(Nc1cc(C(F)(F)F)cc(C(F)(F)F)c1)c1c(OC(=O)N2CCOCC2)ccc2ccccc12 [Compound 83, 2-(Morpholinocarbonyl)oxy-N-[3,5-bis(trifluoromethyl)phenyl]-1-naphthamide] | – | – | 23.5 | 18
O=C(Nc1cc(C(F)(F)F)ccc1Cl)c1cc(Br)ccc1OC(=O)N1CCOCC1 [Compound 85, 5-Bromo-N-[2-chloro-5-(trifluoromethyl)phenyl]-2-[(morpholinocarbonyl)oxy]-benzamide] | – | – | 21.4 | 29.8
COc1ccc(C(F)(F)F)cc1NC(=O)c1cc(Br)ccc1OC(=O)N1CCOCC1 [Compound 86, 5-Bromo-N-[2-methoxy-5-(trifluoromethyl)phenyl]-2-[(morpholinocarbonyl)oxy]-benzamide] | – | – | 23.4 | 11.9
COc1cc(NC(=O)c2cc(Br)ccc2OC(=O)N2CCOCC2)cc(C(F)(F)F)c1 [Compound 87, 5-Bromo-N-[3-methoxy-5-(trifluoromethyl)phenyl]-2-[(morpholinocarbonyl)oxy]-benzamide] | – | – | 29.7 | 55.4
O=C(Nc1cc(Cl)cc(Cl)c1)c1cc(Cl)ccc1OC(=O)N1CCOCC1 [Compound 89, 5-Chloro-N-(3,5-dichlorophenyl)-2-[(morpholinocarbonyl)oxy]benzamide] | – | – | 48.3 | 35.9

Structure (SMILES) | Inhibitory Ratio of NF-κ B Activation(%) (Drug Concentration 1 μg/mL) | Inhibitory Ratio of NF-κ B Activation(%) (Drug Concentration 10 μg/mL) | inhibition at 1 µg/mL (Drug Concentration 1 μg/mL) [%] | inhibition at 10 µg/mL (Drug Concentration 10 μg/mL) [%]
CC(C)(C)C(=O)c1sc(NC(=O)c2cc(Cl)ccc2OC(=O)N2CCOCC2)nc1C(C)(C)C [Compound 92, 5-Chloro-N-{4-[(1,1-dimethyl)ethyl]-5-[(2,2-dimethyl)propionyl]thiazol-2-yl}-2-[(morpholinocarbonyl)oxy]benzamide] | – | – | 86.3 | 93.9
COc1ccc(Cl)cc1C(=O)Nc1cc(C(F)(F)F)cc(C(F)(F)F)c1 [Compound 93] | 44.3 | 24.0 | – | –
COc1ccc(C(C)(C)C)cc1C(=O)Nc1cc(C(F)(F)F)cc(C(F)(F)F)c1 [Compound 94] | 56.1 | 51.7 | – | –
CCOc1ccc(Cl)cc1C(=O)Nc1cc(C(F)(F)F)cc(C(F)(F)F)c1 [Compound 95] | 31.3 | 71.4 | – | –
CC(C)Oc1ccc(Cl)cc1C(=O)Nc1cc(C(F)(F)F)cc(C(F)(F)F)c1 [Compound 96] | 54.1 | 96.1 | – | –
COCOc1ccc(Cl)cc1C(=O)Nc1cc(C(F)(F)F)cc(C(F)(F)F)c1 [Compound 97] | 21.6 | 94.4 | – | –
CC(=O)OCOc1ccc(Cl)cc1C(=O)Nc1cc(C(F)(F)F)cc(C(F)(F)F)c1 [Compound 98] | 94.9 | 96.6 | – | –
CC(C)(C)C(=O)OCOc1ccc(Cl)cc1C(=O)Nc1cc(C(F)(F)F)cc(C(F)(F)F)c1 [Compound 99] | 92.3 | 94.7 | – | –
CCOC(=O)OC(C)Oc1ccc(Cl)cc1C(=O)Nc1cc(C(F)(F)F)cc(C(F)(F)F)c1 (centres unmarked) [Compound 100] | 96.1 | 98.5 | – | –
O=C(Nc1cc(C(F)(F)F)cc(C(F)(F)F)c1)c1cc(Cl)ccc1OCOC(=O)N1CCCCC1 [Compound 101, 5-Chloro-2-[(piperidinocarbonyl)oxy]methoxy-N-[3,5-bis(trifluoromethyl)phenyl]-benzamide] | – | – | 41 | 42.8
O=C(Nc1cc(C(F)(F)F)cc(C(F)(F)F)c1)c1cc(Cl)ccc1OCOC(=O)N1CCOCC1 [Compound 102, 5-Chloro-2-[(morpholinocarbonyl)oxy]methoxy-N-[3,5-bis(trifluoromethyl)phenyl]-benzamide] | – | – | 39.1 | 70
CCOC(=O)C1CCN(C(=O)OCOc2ccc(Cl)cc2C(=O)Nc2cc(C(F)(F)F)cc(C(F)(F)F)c2)CC1 [Compound 103, 5-Chloro-2-({[4-(ethoxycarbonyl)piperidin-1-yl]carbonyl}oxy)methoxy-N-[3,5-bis(trifluoromethyl)phenyl]benzamide] | – | – | 40.4 | 45.9
O=C(Nc1cc(C(F)(F)F)cc(C(F)(F)F)c1)c1cc(Cl)ccc1OCOC(=O)N1CCC(C(=O)O)CC1 [Compound 104] | 48.4 | 58.8 | – | –
CCOC(=O)CN(CC(=O)OCC)C(=O)OCOc1ccc(Cl)cc1C(=O)Nc1cc(C(F)(F)F)cc(C(F)(F)F)c1 [Compound 105, 2-({N,N-bis[(ethoxycarbonyl)methyl]carbamoyl}oxy)methoxy-5-chloro-N-[3,5-bis(trifluoromethyl)phenyl]benzamide] | – | – | 71.8 | 56
O=C(O)CN(CC(=O)O)C(=O)OCOc1ccc(Cl)cc1C(=O)Nc1cc(C(F)(F)F)cc(C(F)(F)F)c1 [Compound 106] | 61.0 | 83.5 | – | –
O=C(Nc1cc(C(F)(F)F)cc(C(F)(F)F)c1)c1cc(Cl)ccc1OCCO [Compound 107] | 47.4 | 52.1 | – | –
O=C(O)COc1ccc(Cl)cc1C(=O)Nc1cc(C(F)(F)F)cc(C(F)(F)F)c1 [Compound 109] | 21.0 | 95.9 | – | –
O=C(COc1ccc(Cl)cc1C(=O)Nc1cc(C(F)(F)F)cc(C(F)(F)F)c1)OCc1ccccc1 [Compound 110, 2-[(benzyloxy)carbonyl]methoxy-5-chloro-N-[3,5-bis(trifluoromethyl)phenyl]-benzamide] | – | – | 38.5 | 39.2
